The values below come from patent publication US11878003B2, “Composition comprising organoselenium compound for treatment of skeletal muscle atrophy” (Gwangju Institute of Science and Technology, priority 2021, dated 2024).

Series [1] relates to C57BL/6J mice. Put plainly: Skeletal muscle degenerative glycerol model. Type of series: in vivo, mouse. The protocol:
The glycerol infusion protocol was used to induce muscle degeneration. Male C57BL/6J mice were anesthetized with PBS containing ketamine (22 mg/kg; Yuhan, Republic of Korea) and xylazine (10 mg/kg; Bayer, Republic of Korea), 100 μL glycerol (50% vol/vol) was injected into unilateral gastrocnemius muscle and splenic muscle.
The mice were treated with vehicle (0.5% methyl cellulose) or with vehicle+ebselen (30 mg/kg) via oral gavage every 24 hours (n=6 per group). A muscle fatigue test was performed after 5 days.
Muscle fatigue was measured using a known protocol (Chiu, et al.). In summary, mice were trained prior to initiating the fatigue task using an accelerated Rotarod (Ugo Basile, Italy). Mice were trained with a Rotarod at a constant speed of 13 rpm for 15 minutes. After 15-minute recovery, mice were placed on a Rotarod adapted to accelerate to 13 to 25 rpm within 3 minutes, for 15 minutes. After 24 hours, the muscle fatigue test was performed with a ramping rate of 13 to 25 rpm within 3 minutes and held at 25 rpm for 30 minutes. For each mouse, a delay time falling from the Rotarod was measured. Mice being tiered were classified as falling 4 times within 1 minute and the test was stopped.
Before sacrificing the mice, the mice were anesthetized by intraperitoneal injection of PBS containing ketamine (22 mg/kg; Yuhan Corporation, Korea) and xylazine (10 mg/kg; Bayer, Korea). After sacrificing the mice, the gastrocnemius and splenic muscles of the glycerol injury model were dissected and weighed. For histological analysis, the muscles were incubated overnight with 4% paraformaldehyde at 4° C., fixed, and embedded in paraffin. 5-μm muscle sections were obtained and was stained with H&E using a kit according to the manufacturer's instructions (Merck & Co., USA). Damaged areas and cross-sectional areas were measured using ImageJ 1.48 software (National Institutes of Health).

Series [2] deals with C2C12 myotubes. Put plainly: SUnSET assay of protein synthesis. The class given is cell-based, mouse. The protocol: Surface sensing translation (SUnSET) assay was performed as described above. Briefly, 1 μg/mL puromycin was added to the culture and the harvest was lysed after 10 minutes. For immunoblotting, the myotube extract was treated with anti-puromycin 12D10 antibody (MABE343; Millipore).

In series [3] the test system is C2C12 myotubes. Put plainly: Dexamethasone-induced myotube atrophy, H&E morphology. The class given is cell-based, mouse. Particulars: co-treatment with 10 μM dexamethasone, 24 hours. The protocol: C2C12 myoblasts were seeded onto 6-well plates in a growth medium (GM). After reaching confluence, the cultures were treated with DM for 72 hours, and myotube atrophy was induced with DM containing 10 μM dexamethasone for 24 hours in the presence or absence of the drug of interest. Myotubes were visualized using hematoxylin and eosin staining according to a previously published protocol, and imaged with an optical microscope (Olympus CKX41, Japan). A myotube distribution was calculated by dividing the number of myotubes in each group by the total number of myotubes per image.
To evaluate myotube formation and atrophy, five microscopic fields of H&E-stained or MitoTracker Red CMX-Ros-stained cultures were randomly captured, and multinuclear myotube formation and diameters were calculated. Myotubes were designated as multinucleated cells containing three or more nuclei, and the diameters of myotubes were calculated using ImageJ 1.48 software (National Institutes of Health, Bethesda, MD, USA).

As for `O=c1c2ccccc2[se]n1-c1ccccc1` [ebselen], the body weight entry in series [1] (30 mg/kg ebselen, oral gavage every 24 hours) is “no significant difference”. Further, in series [1] (gastrocnemius muscle damaged by glycerol), the concentration of myo-inositol entry is given as “decreased”. Moreover, the “expression of Atrogin-1 and Murf-1” value in series [1] (gastrocnemius, qPCR) is on record as “effectively reduced”. Further, in series [1] (glycerol-injected muscle), the gastrocnemius muscle mass entry is listed as “increased”. Also, in series [1] (glycerol-injected splenic muscle), the “mass loss of splenic muscle” value was “significantly inhibited”. For the same molecule, the damaged area entry in series [1] (histology, H&E) is “reduced”. In series [1] (histology, H&E), the fiber cross-sectional area entry was “larger”. The gastrocnemius mass entry in series [1] (non-injected muscles, oral ebselen) is reported as “did not affect”. Moreover, the figures for the protein synthesis result in series [2] (alone or with dexamethasone) and in series [2] (dexamethasone-treated myotubes) were “effective in increasing protein synthesis” and “increased”, respectively. Further, the average myotube diameter entry in series [3] is listed as “did not show a decrease”.
